Source: the supplement of paper PMC11061612

Columns and labels:
Test in all cases: combination Emax (second highest fraction inhibited in the dose matrix, 72 h); higher = more inhibition; extreme values may be limits of the assay
[1] = test system: SNU-423 (Hepatocellular Carcinoma)
Summary of the method: (§1)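 After 24 hours at 37°C and 5% CO2 in 1536-well plates, cells in DMEM/F12 or RPMI plus 10% FBS received two-drug dose matrices for 72 hours. Viability came from CellTiter-Glo 2.0 luminescence and was scaled as inhibition, anchored at 0 by vehicle wells and at 1 by blank wells. Combination Emax is taken as the second-highest inhibition in the matrix, and Bliss excess as the observed combination effect less EA + EB − EA·EB, with EA and EB the single-agent effects.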

[2] = test system: NCI-H3118 (Head and Neck Carcinoma)
Summary of the method: as §1

[3] = test system: SKG-IIIa (Cervical Carcinoma)
Summary of the method: as §1

[4] = test system: MONO-MAC-6 (Acute Myeloid Leukemia)
Summary of the method: as §1

KALS-1 (Glioblastoma) = test system: KALS-1 (Glioblastoma)
Summary of the method: as §1

IST-MEL1 (Melanoma) = test system: IST-MEL1 (Melanoma)
Summary of the method: as §1

ES6 (Ewing's Sarcoma) = test system: ES6 (Ewing's Sarcoma)
Summary of the method: as §1

[5] = test system: BxPC-3 (Pancreatic Carcinoma)
Summary of the method: as §1

[6] = test system: HPAF-II (Pancreatic Carcinoma)
Summary of the method: as §1

NCI-H226 (Mesothelioma) = test system: NCI-H226 (Mesothelioma)
Summary of the method: as §1

[7] = test system: C-33-A (Cervical Carcinoma)
Summary of the method: as §1

[8] = test system: SK-CO-1 (Colorectal Carcinoma)
Summary of the method: as §1

[9] = test system: RCC-JW (Kidney Carcinoma)
Summary of the method: as §1

[10] = test system: COR-L88 (Small Cell Lung Carcinoma)
Summary of the method: as §1

[11] = test system: NAMALWA (Burkitt's Lymphoma)
Summary of the method: as §1

GAK (Melanoma) = test system: GAK (Melanoma)
Summary of the method: as §1

[12] = test system: LCLC-103H (Non-Small Cell Lung Carcinoma)
Summary of the method: as §1

[13] = test system: T84 (Colorectal Carcinoma)
Summary of the method: as §1

[14] = test system: IA-LM (Non-Small Cell Lung Carcinoma)
Summary of the method: as §1

SK-N-SH (Neuroblastoma) = test system: SK-N-SH (Neuroblastoma)
Summary of the method: as §1

SMILES	combination Emax [1]	combination Emax [2]	combination Emax [3]	combination Emax [4]	combination Emax (KALS-1 (Glioblastoma))	combination Emax (IST-MEL1 (Melanoma))	combination Emax (ES6 (Ewing's Sarcoma))	combination Emax [5]	combination Emax [6]	combination Emax (NCI-H226 (Mesothelioma))	combination Emax [7]	combination Emax [8]	combination Emax [9]	combination Emax [10]	combination Emax [11]	combination Emax (GAK (Melanoma))	combination Emax [12]	combination Emax [13]	combination Emax [14]	combination Emax (SK-N-SH (Neuroblastoma))
C=CCn1c(=O)c2cnc(Nc3ccc(N4CCN(C)CC4)cc3)nc2n1-c1cccc(C(C)(C)O)n1 [AZD1775] + CCc1c2c(nc3ccc(O)cc13)-c1cc3c(c(=O)n1C2)COC(=O)[C@]3(O)CC [SN-38] (first compound max 1 µM, partner max 0.3 µM)	0.598	0.9	0.725	1	0.965	0.825	0.607	0.562	0.597	0.366	0.997	0.898	0.542	0.671	1	0.678	0.709	0.867	0.67	0.957
C=CCn1c(=O)c2cnc(Nc3ccc(N4CCN(C)CC4)cc3)nc2n1-c1cccc(C(C)(C)O)n1 [AZD1775] + Nc1ccn([C@@H]2O[C@H](CO)[C@@H](O)C2(F)F)c(=O)n1 [Gemcitabine] (first compound max 1 µM, partner max 0.3 µM)	0.655	0.872	0.643	1	0.929	0.662	0.556	0.554	0.551	0.482	0.996	0.903	0.819	0.65	1	0.612	0.753	0.85	0.287	0.879
CN(CCO)CC[C@H](CSc1ccccc1)Nc1ccc(S(=O)(=O)NC(=O)c2ccc(N3CCC([C@@H](O)c4ccccc4-c4ccc(Cl)cc4)CC3)cc2)cc1S(=O)(=O)C(F)(F)F [AZD4320] + CC(=O)O[C@H]1C(=O)[C@@]2(C)[C@H]([C@H](OC(=O)c3ccccc3)[C@]3(O)C[C@H](OC(=O)[C@H](O)[C@@H](NC(=O)c4ccccc4)c4ccccc4)C(C)=C1C3(C)C)[C@]1(OC(C)=O)CO[C@@H]1C[C@@H]2O [Paclitaxel] (first compound max 1 µM, 7x7, partner max 3 µM)	0.959	0.978	0.905	1	0.984	0.977	0.779	0.928	0.955	0.917	0.989	0.972	0.952	0.997	1	0.709	0.985	0.726	0.833	0.989
CN(CCO)CC[C@H](CSc1ccccc1)Nc1ccc(S(=O)(=O)NC(=O)c2ccc(N3CCC([C@@H](O)c4ccccc4-c4ccc(Cl)cc4)CC3)cc2)cc1S(=O)(=O)C(F)(F)F [AZD4320] + CS(=O)(=O)CCNCc1ccc(-c2ccc3ncnc(Nc4ccc(OCc5cccc(F)c5)c(Cl)c4)c3c2)o1 [Lapatinib] (first compound max 1 µM, 7x7, partner max 10 µM)	0.91	0.561	0.479	0.885	0.422	0.364	0.971	0.486	0.984	0.309	0.476	0.97	1	0.986	0.373	0.272	0.488	0.886	0.539	0.97
CN(CCO)CC[C@H](CSc1ccccc1)Nc1ccc(S(=O)(=O)NC(=O)c2ccc(N3CCC([C@@H](O)c4ccccc4-c4ccc(Cl)cc4)CC3)cc2)cc1S(=O)(=O)C(F)(F)F [AZD4320] + Nc1ccn([C@@H]2O[C@H](CO)[C@@H](O)C2(F)F)c(=O)n1 [Gemcitabine] (first compound max 1 µM, 7x7, partner max 0.3 µM)	0.605	0.752	0.475	1	0.595		0.824	0.577	0.759	0.555	0.796	0.945	0.965	0.947	0.99	0.583	0.681	0.508	0.594	0.968
Cc1c2c(nn1C)CSCc1cc(n(C)n1)CSc1cc(c3ccccc3c1)OCCCc1c(C(=O)O)n(C)c3c-2c(Cl)ccc13 [AZD5991] + CC(=O)O[C@H]1C(=O)[C@@]2(C)[C@H]([C@H](OC(=O)c3ccccc3)[C@]3(O)C[C@H](OC(=O)[C@H](O)[C@@H](NC(=O)c4ccccc4)c4ccccc4)C(C)=C1C3(C)C)[C@]1(OC(C)=O)CO[C@@H]1C[C@@H]2O [Paclitaxel] (first compound max 1 µM, 7x7, partner max 3 µM)	0.672	0.973	0.487	1	0.951	0.587	0.312	0.686	0.53	0.378	0.912	0.858	0.737	0.515	1	0.548	0.91	0.701	0.199	0.926
Cc1c2c(nn1C)CSCc1cc(n(C)n1)CSc1cc(c3ccccc3c1)OCCCc1c(C(=O)O)n(C)c3c-2c(Cl)ccc13 [AZD5991] + CS(=O)(=O)CCNCc1ccc(-c2ccc3ncnc(Nc4ccc(OCc5cccc(F)c5)c(Cl)c4)c3c2)o1 [Lapatinib] (first compound max 1 µM, 7x7, partner max 10 µM)	0.289	0.723	0.456	1	0.332	0.295	0.515	0.483	0.213	0.145	0.514	0.471	0.981	0.305	0.977	0.352	0.2	0.469	0.297	0.442
Cc1c2c(nn1C)CSCc1cc(n(C)n1)CSc1cc(c3ccccc3c1)OCCCc1c(C(=O)O)n(C)c3c-2c(Cl)ccc13 [AZD5991] + Nc1ccn([C@@H]2O[C@H](CO)[C@@H](O)C2(F)F)c(=O)n1 [Gemcitabine] (first compound max 1 µM, 7x7, partner max 0.3 µM)	0.43	0.818	0.332	1	0.542	0.606	0.529	0.47	0.268	0.173	0.895	0.864	0.828	0.485	1	0.473	0.513	0.521	0.261	0.757
C[C@@H]1COCCN1c1cc(C2([S@](C)(=N)=O)CC2)nc(-c2ccnc3[nH]ccc23)n1 [AZD6738] + C1CC(C1)(C(=O)[O-])C(=O)[O-].N.N.[Pt+2] [Carboplatin] (first compound max 10 µM, 7x7, partner max 10 µM)	0.39	0.61	0.407	0.858	0.802	0.679		0.349	0.36	0.236		0.808	0.51	0.299	0.896	0.491	0.385	0.731	0.171	0.818
C[C@@H]1COCCN1c1cc(C2([S@](C)(=N)=O)CC2)nc(-c2ccnc3[nH]ccc23)n1 [AZD6738] + Nc1ccn([C@@H]2O[C@H](CO)[C@@H](O)C2(F)F)c(=O)n1 [Gemcitabine] (first compound max 10 µM, 7x7, partner max 0.3 µM)	0.724	0.846	0.623	1	0.896	0.768	0.731	0.63	0.577	0.495	0.969	0.897	0.877	0.756	1	0.503	0.794	0.793	0.462	0.932
Cc1cc2ncnn2cc1Nc1ncc2c(n1)n(C1CCOCC1)c(=O)n2C [AZD7648] + COc1cc([C@@H]2c3cc4c(cc3[C@@H](O[C@@H]3O[C@@H]5CO[C@@H](C)O[C@H]5[C@H](O)[C@H]3O)[C@H]3COC(=O)[C@H]23)OCO4)cc(OC)c1O [Etoposide] (first compound max 10 µM, 7x7, partner max 10 µM)	0.555	0.768	0.551	1	0.787	0.638	0.36	0.223	0.199	0.332	0.945	0.879	0.56	0.36	0.985	0.525	0.584	0.398	0.28	0.945
C[C@@H](Nc1cc(F)cc(F)c1)c1cc(C(=O)N(C)C)cc2c(=O)cc(N3CCOCC3)oc12 [AZD8186] + C1CN(CCC1(C(=O)N[C@@H](CCO)C2=CC=C(C=C2)Cl)N)C3=NC=NC4=C3C=CN4 [AZD5363] (first compound max 10 µM, 7x7, partner max 10 µM)	0.416	0.519	0.303	0.547	0.398	0.408	0.365	0.323	0.249	0.295	0.589	0.725	0.537	0.171	0.485	0.261	0.417	0.337	0.215	0.364
